The subject of data set [1] is 4th instar larvae of Spilarctia Obliqua. In words: feeding deterrency (antifeedant) bioassay, diet-mix method, fecal pellet count. The note with it: for % feeding deterrency: artificial diet, after 24 hours; for antifeedant activity: result in words, bioassay studies. Type of data set: in vivo. The method, then: (§1) The compound having formula (1) was evaluated as feeding deterrent and growth inhibitor against 4th in star larvae of spilarctia obliqua (Bihar hairy caterpillar). This insect attacks more than twenty cash crops like urd, moong, arhar, mint and coleus etc. Several synthetic insecticides like quinalphos, Phosphamidon and synthetic pyrethroids are commercially used to manage this insect pest. But, the insect is developing resistance towards some of these insecticides. Therefore, it has now become imperative to search for new ecologically safe, environmentally sound and non-toxic chemicals to manage this pest.
(§2) With compound having formula (1) insect feeding deterrency and growth inhibition was tested by diet-mix method. In this method, 4-(p-methoxyphenyl)-2-aminobutane,the compound having formula (1) was dissolved in acetone to make various concentrations ranging from 1000 to 5000 ppm. Test solution was mixed in the artificial diet of the insect so that each gram of diet contained 60-300 µg of the compound (1). 4th in star larva (newly molted) starved four hours, was weighed and released on treated artificial diet in thirty replications. In control, only solvent acetone was mixed and azadirachtin at 1000 ppm concentration was taken as standard for feeding bioassay. After 24 hours, number of fecal pellets produced were counted, and the data were analyzed for % feeding deterrency. Some experiments were continued for next 24 hours and weights of the larva were taken daily. After 3 days, experiment was discontinued and weight gain or loss was analyzed for % growth inhibition.

Data set [2] can be described thus: sensitivity to light (UV and sunlight). Type of data set: physicochemical.
The subject of data set [3] is 4th instar larvae of Spilarctia Obliqua. Nature of the data set: growth inhibition assay, diet-mix method, larval weight gain or loss. Type of data set: in vivo. Particulars: for growth inhibition: result in words, bioassay studies. The method, then:
as §1, §2
Diflubenzuron at 5 ppm was taken as a standard in case of growth inhibitory assay. The test result of compound having formula (1) in terms of its feeding deterrency and growth inhibition as compared to standards azadirachtin and diflubenzuron are given in table 1.

Setting [4] is: Spilarctia obliqua, 72 h, read-out: % growth inhibition.

As to `C/C=C(\C)C(=O)O[C@H]1C[C@@H](OC(C)=O)[C@@]2(C(=O)OC)CO[C@H]3[C@@H](O)[C@@](C)([C@]45O[C@@]4(C)[C@H]4C[C@@H]5O[C@@H]5OC=C[C@@]54O)[C@H]4[C@]1(CO[C@]4(O)C(=O)OC)[C@@H]32` [Azadirachtin, reference compound], in data set [1] (1000 ppm), the “% feeding deterrency” value was 100.0%. In data set [2], the sensitivity to light entry is given as “photosensitive”.

Usually inhibition stands for the drop in the measured response relative to a control, in per cent. Consider `COc1ccc(CCC(C)N)cc1` (stereo not drawn) [Compound 1, 4-(p-methoxyphenyl)-2-amino-butane], for which the “% feeding deterrency” value in data set [1] (1000 ppm) amounted to 32.0%. The “% feeding deterrency” value in data set [1] (2000 ppm) is 40.0%. Further, in data set [1] (3000 ppm), the “% feeding deterrency” value is on record as 64.0%. The “% feeding deterrency” value in data set [1] (4000 ppm) came to 82.0%. The “% feeding deterrency” value in data set [1] (5000 ppm) turned out to be 100.0%. Moreover, the antifeedant activity entry in data set [1] is “significant activity”. Also, in data set [3] (setting [4]), the inhibition at 1000 ppm was 48%, the inhibition at 2000 ppm stood at 59%, the inhibition at 3000 ppm was found to be 72% and the inhibition at 4000 ppm stood at 100%. Besides, the inhibition at 5000 ppm in data set [3] (setting [4]) is 128%. Also, the growth inhibition entry in data set [3] is “significant activity”. Further, the sensitivity to light result in data set [2] is recorded as “not sensitive to light”.

As for `CC(O)CCc1ccc(O)cc1` (stereo not drawn) [compound (2), 4-(p-hydroxyphenyl)-butan-2-ol], the antifeedant activity entry in data set [1] is “not found to be active”. Also, in data set [3], the growth inhibition entry is “not found to be active”.

For the molecule `O=C(NC(=O)c1c(F)cccc1F)Nc1ccc(Cl)cc1` [Diflubenzuron, reference compound], the inhibition at 5 ppm in data set [3] (Spilarctia obliqua, 72 h, 5 ppm, artificial diet, after 3 days) amounted to 100%.
